What was measured:
[1] = tested on: smallflower umbrella sedge; test: Test C flooded paddy test; format: in vivo, Cyperus difformis
[2] = tested on: barnyardgrass; test: Test C flooded paddy test; format: in vivo, Echinochloa crus-galli
Outline: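 Visual rating, 0 (no effect) to 100 (complete control), vs. controls at 12–14 d in greenhouse. Postemergence: 1–4-leaf plants, 2–18 cm. Paddy: flooded, barnyardgrass at 2-leaf stage.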

[3] = tested on: rice; test: Test B pre-/postemergence herbicide test; format: in vivo, Oryza sativa; conditions: 0 = no effect, 100 = complete control, preemergence
Outline: (§1)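 Formulation: non-phytotoxic solvent mix with surfactant. Timing: preemergence on seed and postemergence on 2–18 cm plants, applied concurrently. Readout after 13–15 d greenhouse: visual 0–100 control rating against controls.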

[4] = tested on: ducksalad; test: Test B flooded paddy test; format: in vivo, Heteranthera limosa; conditions: 1000 g ai/ha, scale 0 to 100 (0 no effect, 100 complete control)
Outline: (§2)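 Treated at 2-leaf (paddy) or 1–4-leaf, 2–18 cm (postemergence); greenhouse 13–15 d; visual score vs control, 0 none to 100 complete control; dash = not tested.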

[5] = tested on: wheat; test: Test B postemergence herbicide test; format: in vivo, Triticum aestivum; parameters: key to Wheat plant response rating: 0 = no effect, 100 = complete control; conditions: postemergence
Outline: (§3)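 Plants grow to 1- to 4-leaf stage (2–18 cm) for postemergence spraying, or to 2-leaf stage for the paddy test. Formulated compound is applied. Greenhouse holding lasts 13–15 days. Response is scored visually relative to controls, 0 no effect to 100 complete control; a dash means no result.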

[6] = tested on: cocklebur; test: Test B pre-/postemergence herbicide test; format: in vivo, Xanthium strumarium; conditions: for Cocklebur plant response rating: postemergence
Outline: (§4)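 Herbicidal effect was judged by eye on a 0–100 scale after plants stood 13 to 15 days in the greenhouse following pre- or postemergence treatment with surfactant-containing formulations.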

[7] = tested on: blackgrass; test: Test B postemergence herbicide test; format: in vivo, Alopecurus myosuroides; conditions: postemergence
Outline: as §2

[8] = tested on: large crabgrass; test: Test B pre-/postemergence herbicide test; format: in vivo, Digitaria sanguinalis; conditions: for Crabgrass, Large plant response rating: postemergence
Outline: as §1

[9] = tested on: Surinam grass; test: Test B pre-/postemergence herbicide test; format: in vivo, Urochloa decumbens; conditions: for Surinam Grass plant response rating: postemergence
Outline: as §1

[10] = tested on: giant foxtail; test: Test B pre-/postemergence herbicide test; format: in vivo, Setaria faberi; conditions: for Foxtail, Giant plant response rating: postemergence
Outline: as §1

[11] = tested on: barnyardgrass; test: Test B flooded paddy test; format: in vivo, Echinochloa crus-galli; conditions: 1000 g ai/ha, scale 0 to 100 (0 no effect, 100 complete control)
Outline: as §2

[12] = tested on: lambsquarters; test: Test B pre-/postemergence herbicide test; format: in vivo, Chenopodium album; conditions: for Lambsquarters plant response rating: postemergence
Outline: as §1

[13] = tested on: barnyardgrass; test: Test B pre-/postemergence herbicide test; format: in vivo, Echinochloa crus-galli; conditions: for Barnyardgrass plant response rating: postemergence
Outline: as §4

[14] = tested on: rice; test: Test B flooded paddy test; format: in vivo, Oryza sativa; conditions: 1000 g ai/ha, scale 0 to 100 (0 no effect, 100 complete control)
Outline: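 Scale 0–100: zero equals no visible effect, 100 complete control, judged by eye relative to controls. Timing: 13 to 15 days in greenhouse post-treatment. Growth stage at spraying: two leaves (paddy) or one to four leaves, 2–18 cm (postemergence).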

[15] = tested on: morningglory; test: Test B pre-/postemergence herbicide test; format: in vivo, Ipomoea coccinea; conditions: for Morningglory plant response rating: postemergence
Outline: as §4

[16] = tested on: small flower umbrella sedge; test: Test B flooded paddy test; format: in vivo, Cyperus difformis; conditions: 1000 g ai/ha, scale 0 to 100 (0 no effect, 100 complete control)
Outline: as §2

[17] = tested on: pigweed; test: Test B pre-/postemergence herbicide test; format: in vivo, Amaranthus retroflexus; conditions: for Pigweed plant response rating: postemergence
Outline: as §1

[18] = tested on: rice; test: Test C flooded paddy test; format: in vivo, Oryza sativa
Outline: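 Plants were grown to the 1- to 4-leaf stage (2–18 cm) and then treated postemergence, or grown to the 2-leaf stage for the flooded paddy test. They were held in a greenhouse for 12 to 14 days and then scored by eye against controls, where 0 is no effect and 100 is complete control.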

[19] = tested on: corn; test: Test B pre-/postemergence herbicide test; format: in vivo, Zea mays; conditions: for Corn plant response rating: postemergence
Outline: as §1

[20] = tested on: velvetleaf; test: Test B pre-/postemergence herbicide test; format: in vivo, Abutilon theophrasti; conditions: for Velvetleaf plant response rating: postemergence
Outline: as §1

[21] = tested on: ducksalad; test: Test C flooded paddy test; format: in vivo, Heteranthera limosa
[22] = tested on: wild oat; test: Test B postemergence herbicide test; format: in vivo, Avena fatua; conditions: postemergence
Outline: as §3

[23] = 125 g ai/ha, scale 0 to 100 (0 no effect, 100 complete control)
[24] = 250 g ai/ha, scale of 0 to 100, 0 is no effect, 100 is complete control
[25] = 500 g ai/ha, visual rating after 12 to 14 days, scale 0 to 100 (0 no effect, 100 complete control)
[26] = 125 g ai/ha, visual rating, scale 0 (no effect) to 100 (complete control)
[27] = 500 g ai/ha, scale 0 to 100, 0 is no effect, 100 is complete control
[28] = 125 g ai/ha, 0 = no effect, 100 = complete control, preemergence
[29] = 500 g ai/ha, visual rating, 0 = no effect, 100 = complete control, preemergence

C#CCNC(=O)c1ccc(F)c(NC(=O)c2cc(C3(C)CC3)nn2CC)c1 [Compound 302]
55: Plant response rating, Rice [18, 25]
60: Lambsquarters plant response rating [12, 26] | Plant response rating, Barnyardgrass [13, 29] | Morningglory plant response rating [15, 27]
50: Sedge, Umbrella plant response rating [1, 23] | Corn plant response rating [19, 27]
25: Ducksalad plant response rating [21, 23]
80: Sedge, Umbrella plant response rating [16] | Pigweed plant response rating [17, 26] | Plant response rating, Velvetleaf [20, 29]
75: Sedge, Umbrella plant response rating [1, 24]
0: Barnyardgrass plant response rating ([2]; 62 g ai/ha, scale 0 to 100 (0 no effect, 100 complete control)) | Barnyardgrass plant response rating [2, 23] | Rice plant response rating (0 to 100 scale) ([3]; 125 g ai/ha) | Wheat plant response rating [5, 26] | Cocklebur plant response rating (0 to 100 scale) [6, 28] | Plant response rating, Cocklebur [6, 29] | Crabgrass, Large plant response rating [8, 26] | Surinam Grass plant response rating [9, 26] | Foxtail, Giant plant response rating (0 to 100 scale) [10, 28] | Foxtail, Giant plant response rating [10, 26] | Lambsquarters plant response rating (0 to 100 scale) [12, 28] | Barnyardgrass plant response rating (0 to 100 scale) [13, 28] | Morningglory plant response rating (0 to 100 scale) [15, 28] | Rice plant response rating ([18]; 62 g ai/ha, scale 0 to 100) | Rice plant response rating [18, 23] | Rice plant response rating [18, 24] | Corn plant response rating (0 to 100 scale) [19, 28] | Ducksalad plant response rating ([21]; 62 g ai/ha, scale 0 to 100) | Oat, Wild plant response rating [22, 26]
90: Ducksalad plant response rating [4] | Pigweed plant response rating [17, 27]
100: Plant response rating, Crabgrass, Large [8, 29] | Plant response rating, Lambsquarters [12, 29] | Pigweed plant response rating (0 to 100 scale) [17, 28] | Plant response rating, Pigweed [17, 29]
85: Plant response rating, Sedge, Umbrella [1, 25] | Plant response rating, Ducksalad [21, 25]
20: Blackgrass plant response rating [7, 27] | Foxtail, Giant plant response rating [10, 27]
70: Crabgrass, Large plant response rating (0 to 100 scale) [8, 28] | Barnyardgrass plant response rating [11] | Lambsquarters plant response rating [12, 27] | Rice plant response rating [14]
35: Plant response rating, Barnyardgrass [2, 25]
15: Sedge, Umbrella plant response rating ([1]; 62 g ai/ha, scale 0 to 100)
10: Barnyardgrass plant response rating [2, 24] | Plant response rating, Rice ([3]; 500 g ai/ha, visual rating) | Wheat plant response rating [5, 27] | Cocklebur plant response rating [6, 26] | Cocklebur plant response rating [6, 27] | Blackgrass plant response rating [7, 26] | Crabgrass, Large plant response rating [8, 27] | Surinam Grass plant response rating (0 to 100 scale) [9, 28] | Surinam Grass plant response rating [9, 27] | Barnyardgrass plant response rating [13, 26] | Plant response rating, Morningglory [15, 29] | Corn plant response rating [19, 26] | Plant response rating, Corn [19, 29] | Velvetleaf plant response rating [20, 26] | Velvetleaf plant response rating [20, 27] | Oat, Wild plant response rating [22, 27]
40: Barnyardgrass plant response rating [13, 27]
30: Plant response rating, Surinam Grass [9, 29] | Plant response rating, Foxtail, Giant [10, 29] | Morningglory plant response rating [15, 26] | Ducksalad plant response rating [21, 24]
